Source: US7977365B2 (priority 2006, dated 2011)
Like-named read-outs stand apart in the source and are kept apart here.

How the values were obtained:
[1] = tested on: LASV GP; assay: organism not typed; type: cell-based; conditions: HEK-293T
[2] = tested on: Lassa GP-pseudotyped-virus; assay: microbe, parasite or virus in culture; type: cell-based, Lassa fever virus; conditions: for EC50: Human immunodeficiency virus 1, read-out: Activity against Lassa GP-pseudotyped-virus EC50
[3] = tested on: Lassa fever virus (Josiah strain); assay: organism not typed; type: cell-based; conditions: read-out: Activity vs. LFV EC50
[4] = tested on: envelope of the New World arenavirus Guanarito; assay: microbe, parasite or virus in culture; type: cell-based; conditions: read-out: EC50, Guanarito envelope pseudotyped viral infection
[5] = tested on: Pichinde GP; assay: organism not typed; type: cell-based; conditions: HEK-293T, 72 h, read-out: IC50 ± SEM, Pichinde (wt) GP pseudotype
[6] = tested on: Junín GP; assay: organism not typed; type: cell-based; conditions: HEK-293T, 72 h, read-out: IC50 ± SEM, Junín GP pseudotype
[7] = at 50 μM
[8] = tested on: VSVg; assay: microbe, parasite or virus in culture; type: cell-based, vesicular stomatitis virus; conditions: read-out: IC50 ± SEM, VSV envelope pseudotype
[9] = tested on: envelope of the New World arenavirus Tacaribe; assay: microbe, parasite or virus in culture; type: cell-based; conditions: read-out: EC50, Tacaribe envelope pseudotyped viral infection
[10] = tested on: unselected TCRV; type: cell-based
[11] = in vitro; conditions: human
[12] = tested on: Machupo GP; assay: organism not typed; type: cell-based; conditions: HEK-293T, 72 h, read-out: IC50 ± SEM, Machupo GP pseudotype
[13] = tested on: Sabia GP; assay: organism not typed; type: cell-based; conditions: HEK-293T, 72 h, read-out: IC50 ± SEM, Sabia GP pseudotype
[14] = tested on: Guanarito GP; assay: organism not typed; type: cell-based; conditions: HEK-293T, 72 h, read-out: IC50 ± SEM, Guanarito GP pseudotype
[15] = tested on: LCMV GP; assay: organism not typed; type: cell-based; conditions: HEK-293T, 72 h, read-out: IC50 ± SEM, LCMV (wt) GP pseudotype
[16] = tested on: Tacaribe GP; assay: organism not typed; type: cell-based; conditions: HEK-293T, 72 h, read-out: IC50 ± SEM, Tacaribe GP pseudotype

Compound | specificity [2] | EC50 [2] | further results
COc1ccc(CNc2ccc3c(c2)ncn3-c2ccc(OC)cc2)cc1 [Compound 600037, (4-methoxy-benzyl)-[1-(4-methoxy-phenyl)-1H-benzimidazol-5-yl]-amine] | 900 | 16 nM | IC50 ([1]; read-out: average IC50 against LASV GP pseudotypes): 16 nM; EC50 [3]: < 100 nM
COc1ccccc1-n1cnc2cc(NCc3ccc(N(C)C)cc3)ccc21 [Compound 600137, (4-dimethylamino-benzyl)-[1-(2-methoxy-phenyl)-1H-benzimidazol-5-yl]-amine] |  | > 12000 nM | 
CN(C)c1ccc(CNc2ccc3c(c2)ncn3-c2ccccc2)cc1 [Compound 600144, (4-dimethylamino-benzyl)-[1-phenyl-1H-benzimidazol-5-yl]-amine] | >1 | 11000 nM | 
COc1ccc(-n2cnc3cc(NCc4ccc(Br)cc4)ccc32)cc1 [Compound 600145, (4-bromo-benzyl)-[1-(4-methoxy-phenyl)-1H-benzimidazol-5-yl]-amine] | 300 | 40 nM | 
COc1ccc(-n2cnc3cc(NCc4ccccc4OC)ccc32)cc1 [Compound 600146, (2-methoxy-benzyl)-[1-(4-methoxy-phenyl)-1H-benzimidazol-5-yl]-amine] | >40 | 300 nM | 
CCOc1ccc(CNc2ccc3c(c2)ncn3-c2ccc(OC)cc2)cc1 [Compound 600147, (4-ethoxy-benzyl)-[1-(4-methoxy-phenyl)-1H-benzimidazol-5-yl]-amine] | >4000 | 3 nM | 
COc1ccc(-n2cnc3cc(NCc4cccc5ccccc45)ccc32)cc1 [Compound 600149, [1-(4-methoxy-phenyl)-1H-benzimidazol-5-yl]-napthalen-1-ylmethyl-amine] | >200 | 60 nM | 
COc1ccc(-n2cnc3cc(NCc4ccccc4O)ccc32)cc1 [Compound 600153, 2-[[1-(4-methoxy-phenyl)-1H-benzimidazol-5-ylamino]-methyl]-phenol] | >60 | 180 nM | 
COc1ccc(CNc2ccc3c(c2)ncn3-c2ccc(C)cc2)cc1 [Compound 600169, (4-methoxy-benzyl)-(1-p-tolyl-1H-benzimidazol-5-yl)-amine] | >500 | 20 nM | 
COc1ccc(-n2cnc3cc(NCc4ccc(Cl)cc4)ccc32)cc1 [Compound 600170, (4-chloro-benzyl)-[1-(4-methoxy-phenyl)-1H-benzimidazol-5-yl]-amine] | >200 | 40 nM | 
COc1ccc(-n2cnc3cc(NCc4ccc(OC)c(OC)c4)ccc32)cc1 [Compound 600172, (3,4-dimethoxy-benzyl)-[1-(4-methoxy-phenyl)-1H-benzimidazol-5-yl]-amine] | >10 | 700 nM | 
Brc1ccc(CNc2ccc3c(c2)ncn3-c2ccccc2)cc1 [Compound 600173, (4-bromo-benzyl)-(1-phenyl-1H-benzimidazol-5-yl)-amine] | >30 | 400 nM | 
CCOc1ccc(CN(c2ccc3c(c2)ncn3-c2ccccc2OC)S(=O)(=O)c2ccc(C)cc2)cc1 [Compound 600179, N-(4-ethoxy-benzyl)-N-[1-(2-methoxy-phenyl)-1H-benzimidazol-5-yl]-4-methylbenzenesulfonamide] | >100 | 110 nM | 
COc1ccc(-n2cnc3cc(NCc4ccc(C)cc4)ccc32)cc1 [Compound 600188, [1-(4-methoxy-phenyl)-1H-benzimidazol-5-yl]-(4-methyl-benzyl)-amine] | >4000 | 3 nM | 
COc1ccc(-n2cnc3cc(NCc4cccc(OC)c4OC)ccc32)cc1 [Compound 600189, (2,3-dimethoxy-benzyl)-[1-(4-methoxy-phenyl)-1H-benzimidazol-5-yl]-amine] | 100 | 100 nM | 
COc1ccc(CNc2ccc3c(c2)ncn3-c2ccccc2OC)cc1 [Compound 600190, (4-methoxy-benzyl)-[1-(2-methoxy-phenyl)-1H-benzimidazol-5-yl]-amine] | 3 | 2000 nM | 
COc1ccc(-n2cnc3cc(NCc4cccc(OC)c4)ccc32)cc1 [Compound 600191, (3-methoxy-benzyl)-[1-(4-methoxy-phenyl)-1H-benzimidazol-5-yl]-amine] | >300 | 40 nM | 
COc1ccccc1-n1cnc2cc(NCc3cccc(OC)c3OC)ccc21 [Compound 600192, (2,3-dimethoxy-benzyl)-[1-(2-methoxy-phenyl)-1H-benzimidazol-5-yl]-amine] | none | 5000 nM | 
COc1ccc(-n2cnc3cc(NCc4ccc(C(C)C)cc4)ccc32)cc1 [Compound 600193, (4-isopropyl-benzyl)-[1-(4-methoxy-phenyl)-1H-benzimidazol-5-yl]-amine] | 13,000 | 1.1 nM | EC50 [4]: < 1 nM; IC50 ([1]; 72 h, read-out: IC50 ± SEM, Lassa (LASV wt) GP pseudotype): 1.6 ± 0.3 nM; IC50 [5]: 2600 ± 500 nM; IC50 [6]: 0.2 ± 0.03 nM; solubility observation [7]: visual evidence of insolubility; IC50 ([8]; Vesicular stomatitis virus, HEK-293T): ~30000 nM; IC50 [8]: 29000 ± 2500 nM; EC50 [9]: 4 nM; reduction of TCRV titer [10]: 1000 fold; CC50 [11]: 48000 nM; IC50 [12]: 2.3 ± 1.3 nM; EC50 [3]: < 100 nM; IC50 [13]: 12 ± 3 nM; IC50 [14]: 0.34 ± 0.07 nM; IC50 [15]: 31000 ± 4000 nM; IC50 [16]: 4 ± 2 nM
COc1ccc(CNc2ccc3c(c2)ncn3-c2ccccc2)cc1 [Compound 600196, (4-methoxy-benzyl)-(1-phenyl-1H-benzimidazol-5-yl)-amine] | >400 | 30 nM | 
COc1ccc(-n2cnc3cc(N(Cc4ccc(C(C)C)cc4)C(C)=O)ccc32)cc1 [Compound 600362] | 40 | 400 nM | 
COc1ccc(-n2cnc3cc(N(Cc4ccc(C(C)C)cc4)S(=O)(=O)c4ccc(C)cc4)ccc32)cc1 [Compound 600363, N-(4-isopropyl-benzyl)-N-[1-(4-methoxy-phenyl)-1H-benzimidazol-5-yl]-4-methylbenzenesulfonamide] | 100 | 200 nM | 
